Test results: PMC11831382, “Use of Aldehyde–Alkyne–Amine Couplings to Generate Medicinal Chemistry-Relevant Linkers” (ACS Medicinal Chemistry Letters, 2025)
Entries after “also recorded” stand apart in the source; their conditions may differ.

Assays:
BRD4 = molecular target: T1, BRD4 (Homo sapiens, UniProt O60885); assay: BRD4 degradation assay, Promega Nano-Glo HiBiT lytic assay; format: cell-based; conditions: HEK293 CRISPR HiBiT BRD4 cell line
T1 construct: endogenous in cells; host or cells: HEK293 CRISPR HiBiT BRD4 (knock-in)
Protocol: Data plotted are average ± SD of n = 3 biological replicates.
HEK293 CRISPR HIBIT BRD4 cells were seeded at 5 X 10^5 cells per well in culture medium into
Plates were incubated at 37 °C, 5% CO2 in a humidiﬁed incubator overnight. Compounds (10 mM stock in DMSO) were diluted to a half-log scale and added to the cells. Plates were further incubated at 37 °C for 18 hours.
Following incubation, 100 μL per well Promega Nano -Glo HiBiT lytic detection reagent mix (Promega Nano -Glo HiBiT Lytic Detection System #N3050), prepared according to the manufacturer´s instructions in the kit, were added. The plates were incubated on an orbital shaker for 10 min. Luminescence was measured using plate reader (BMG L abtech PHERA star).

BRD4 long and short = assay: Western blot of BRD4 degradation; format: cell-based
Protocol: Figure 2 Representative Western blot of 7a degradation of BRD4 performed in HEK293 cell line after 18 h treatment. The experiment was done as n = 3 independent biological replicates.
The best analogue, 7a, was next shown, by Western blot, to degrade both BRD4 long and short in the 300–1000 nM range, reversed by the addition of either proteasome or neddylation inhibitors or by thalidomide.
Cell culture. HEK293 CRISPR HIBIT BRD4 cells were generated at CeTPD using CRISPR -CAS technology. Parental HEK293 and HEK293 CRISPR HIBIT BRD4 cell lines were cultured in DMEM media (Gibco), supplemented with 10% fetal bovine serum (FBS), and were kept at 37 °C, 5% CO2 in a humidiﬁed incubator.
BRD4 Degradation A ssays used a HiBiT Lytic assay. […]
(§1) Following incubation, 100 μL per well Promega Nano -Glo HiBiT lytic detection reagent mix (Promega Nano -Glo HiBiT Lytic Detection System #N3050), prepared according to the manufacturer´s instructions in the kit, were added. […] Luminescence was measured using plate reader (BMG L abtech PHERA star).
(§2) Luminescence levels in the treatment wells were normalised to DMSO-treated samples and plotted as percentage of DMSO control in GraphPad Prism (10.2.3).Western blot 5x10^5 HEK293 CRISPR HIBIT BRD4 cells were seeded into 6-well plates 24 hours before treatment. […]
(§3) Fluorescence Polarization (FP). […]

[1] = Microsomal stability (HLM); format: in vitro ADME; conditions: human, human liver microsomes
From the text: (§4) Moreover, the solubility of both final compounds was low (5% PBS buffer, saline). These examples were merely chosen to showcase the synthetic potential of the chemistry rather than a medicinal chemistry-focused PROTAC optimization approach for which scope remains to optimize PK properties in future heterofunctional molecules. For example, the alkyne functionality, present in the A^3 products 2a and 2c, although present in a number of marketed, bioactive molecules,[37] even PROTACs,[38] acting as a rigid hydrophobic spacer, can be reduced by catalytic hydrogenation[39] to afford a saturated, more flexible yet possibly less metabolically labile linker.

[2] = Bidirectional permeability (Papp A-B, B-A); format: in vitro ADME; conditions: for A-B Permeability: class in words; for Papp A→B / Papp B→A: not told; for Papp A→B: A-B direction; for Papp B→A: B-A direction
From the text: (§5) Figure S3 . PK data for 7a and 7c.
(§6) (2 pictures or pasted objects on this page, not shown here)

P-gp [3] = assay: Bidirectional permeability (Papp A-B, B-A); format: in vitro ADME; conditions: not told
From the text: as §5, §6

P-gp [4] = molecular target: P-gp (Homo sapiens, UniProt P08183); assay: P-gp substrate classification from efflux ratio; format: in vitro ADME
From the text: as §5, §6

Solubility = format: physicochemical; conditions: for solubility: 5% PBS buffer, saline; for solubility (qualitative remark): visual or general observation
From the text: as §4

[5] = molecular target: CRBN-DDB1 (cereblon DNA damage-binding protein 1 complex) (Homo sapiens, UniProt Q96SW2); assay: Fluorescence polarization (FP) CRBN-binding assay, direct titration; conditions: 1 nM 4c titrated with CRBN-DDB1, triplicates, read-out: dissociation constant (Kd)
From the text: Medicinal chemistry scope was expanded by the synthesis of a few representative linkers, which were elaborated to modalities adorned with a cellular marker, an E3 ligase motif, and a free alcohol function. […] Initially, treatment with Pd(dba)2, dppb, and thiosalicylic acid removed the allyl protecting group to give 2m in 39% yield. The resulting secondary amine was coupled to a bodipy-containing carboxylic acid 3([25]) to afford the Boc-protected linker 4a (82% yield, Scheme 3). Simple Boc removal with acid exposed the secondary amine 4b intermediate, which was coupled to an acid comprising E3 ligand affording 4c. Such modalities have a free “handle” that could be added to a POI-binding ligand of choice, e.g., by substitution chemistry, esterification, or ether formation. […]
as §1, §2, §3

Chain of CRBN-DDB1 (cereblon DNA damage-binding protein 1 complex) (Q96SW2 whole entry): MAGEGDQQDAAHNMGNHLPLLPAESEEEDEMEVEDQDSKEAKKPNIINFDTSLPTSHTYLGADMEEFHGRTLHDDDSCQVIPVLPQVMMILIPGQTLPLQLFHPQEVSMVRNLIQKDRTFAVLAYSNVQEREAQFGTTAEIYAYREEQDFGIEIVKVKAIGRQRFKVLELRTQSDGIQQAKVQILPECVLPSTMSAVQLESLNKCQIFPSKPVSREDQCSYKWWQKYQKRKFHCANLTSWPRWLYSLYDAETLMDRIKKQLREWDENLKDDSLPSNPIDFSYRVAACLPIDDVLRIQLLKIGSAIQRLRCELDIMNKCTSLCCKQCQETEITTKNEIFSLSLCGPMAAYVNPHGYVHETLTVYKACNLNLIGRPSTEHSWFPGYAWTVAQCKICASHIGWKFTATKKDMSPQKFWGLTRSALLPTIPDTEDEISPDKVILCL
Chain of CRBN-DDB1 (cereblon DNA damage-binding protein 1 complex) (Q16531 whole entry partner): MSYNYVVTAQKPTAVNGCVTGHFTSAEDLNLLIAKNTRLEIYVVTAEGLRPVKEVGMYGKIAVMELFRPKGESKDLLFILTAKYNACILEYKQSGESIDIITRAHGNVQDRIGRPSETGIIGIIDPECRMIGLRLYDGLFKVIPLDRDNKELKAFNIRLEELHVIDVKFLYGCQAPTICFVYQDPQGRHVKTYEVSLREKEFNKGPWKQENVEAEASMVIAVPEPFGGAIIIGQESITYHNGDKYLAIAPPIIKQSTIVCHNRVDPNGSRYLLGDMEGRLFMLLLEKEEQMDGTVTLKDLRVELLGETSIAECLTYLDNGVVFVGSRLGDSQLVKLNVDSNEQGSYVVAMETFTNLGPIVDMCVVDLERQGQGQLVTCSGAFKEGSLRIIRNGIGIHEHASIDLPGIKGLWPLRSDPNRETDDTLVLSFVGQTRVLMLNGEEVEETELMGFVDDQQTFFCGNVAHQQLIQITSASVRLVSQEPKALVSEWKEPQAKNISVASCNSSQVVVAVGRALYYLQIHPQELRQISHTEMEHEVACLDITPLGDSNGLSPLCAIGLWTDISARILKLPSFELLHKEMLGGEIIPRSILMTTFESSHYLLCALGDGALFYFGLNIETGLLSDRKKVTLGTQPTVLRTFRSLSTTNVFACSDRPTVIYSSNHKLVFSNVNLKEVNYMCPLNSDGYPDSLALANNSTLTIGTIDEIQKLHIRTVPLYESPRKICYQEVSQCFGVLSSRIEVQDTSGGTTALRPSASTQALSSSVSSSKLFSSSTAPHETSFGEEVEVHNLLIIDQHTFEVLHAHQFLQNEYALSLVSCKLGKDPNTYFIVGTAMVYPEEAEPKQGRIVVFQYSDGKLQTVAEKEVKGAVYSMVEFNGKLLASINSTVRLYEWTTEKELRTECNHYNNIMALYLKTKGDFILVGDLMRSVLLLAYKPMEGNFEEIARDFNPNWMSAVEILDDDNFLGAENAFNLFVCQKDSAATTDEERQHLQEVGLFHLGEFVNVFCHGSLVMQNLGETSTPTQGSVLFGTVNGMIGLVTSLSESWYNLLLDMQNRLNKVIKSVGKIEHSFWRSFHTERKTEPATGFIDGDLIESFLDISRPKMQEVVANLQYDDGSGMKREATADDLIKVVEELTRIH
Chain of P-gp (Homo sapiens, UniProt P08183) (P08183 whole entry): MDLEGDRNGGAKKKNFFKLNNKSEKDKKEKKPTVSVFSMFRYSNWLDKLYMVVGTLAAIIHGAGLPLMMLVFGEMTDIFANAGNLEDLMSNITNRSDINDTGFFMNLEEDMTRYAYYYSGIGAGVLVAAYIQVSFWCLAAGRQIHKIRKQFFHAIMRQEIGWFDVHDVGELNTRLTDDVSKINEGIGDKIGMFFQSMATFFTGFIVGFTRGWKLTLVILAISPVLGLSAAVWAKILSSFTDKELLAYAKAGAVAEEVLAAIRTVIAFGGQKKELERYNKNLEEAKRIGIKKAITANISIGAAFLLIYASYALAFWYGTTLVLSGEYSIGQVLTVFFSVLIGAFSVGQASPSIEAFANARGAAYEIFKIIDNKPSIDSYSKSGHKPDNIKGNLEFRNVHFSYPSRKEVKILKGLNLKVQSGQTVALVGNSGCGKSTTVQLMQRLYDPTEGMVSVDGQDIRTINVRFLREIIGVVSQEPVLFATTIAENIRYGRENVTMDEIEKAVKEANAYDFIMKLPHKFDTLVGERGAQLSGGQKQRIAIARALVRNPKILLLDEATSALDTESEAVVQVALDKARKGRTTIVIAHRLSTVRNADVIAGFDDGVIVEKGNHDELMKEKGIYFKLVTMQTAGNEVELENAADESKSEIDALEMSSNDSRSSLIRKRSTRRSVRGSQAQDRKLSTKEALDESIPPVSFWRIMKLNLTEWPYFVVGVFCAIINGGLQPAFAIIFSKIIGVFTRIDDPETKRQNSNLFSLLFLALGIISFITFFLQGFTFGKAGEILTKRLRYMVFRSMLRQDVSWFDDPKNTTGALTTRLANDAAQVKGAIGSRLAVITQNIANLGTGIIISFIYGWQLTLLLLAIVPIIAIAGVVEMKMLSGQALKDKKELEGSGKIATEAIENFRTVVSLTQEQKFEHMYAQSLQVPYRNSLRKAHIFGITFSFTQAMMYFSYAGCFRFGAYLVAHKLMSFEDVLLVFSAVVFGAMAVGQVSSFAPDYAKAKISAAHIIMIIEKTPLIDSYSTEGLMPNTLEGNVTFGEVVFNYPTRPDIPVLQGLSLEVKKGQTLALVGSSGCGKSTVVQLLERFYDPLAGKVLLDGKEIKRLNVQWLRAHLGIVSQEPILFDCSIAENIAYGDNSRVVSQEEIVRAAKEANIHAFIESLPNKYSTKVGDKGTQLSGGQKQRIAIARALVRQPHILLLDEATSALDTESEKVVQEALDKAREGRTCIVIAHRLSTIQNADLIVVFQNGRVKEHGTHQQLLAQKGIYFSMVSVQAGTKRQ

SMILES	DC50 (BRD4; 18 h after dosage)	degradation on addition of proteasome or neddylation inhibitors or thalidomide (BRD4 long and short; 10 µM 7a with 10 µM MG132, MLN4924 or thalidomide, 18 h)	concentration range degrading BRD4 long and short (BRD4 long and short; HEK293 cell line, 18 h treatment)	half-life at 1 h [1]	microsomal CLint [1]	A-B Permeability [2]	Papp A→B [2]	Papp B→A [2]	efflux ratio (P-gp [3])	P-gp Substrate (P-gp [4])	solubility (Solubility)	Kd [5]	DC50 (BRD4; 18 h)	solubility (qualitative remark) (Solubility)
Cc1sc2c(c1C)C(c1ccc(Cl)cc1)=N[C@@H](CC(=O)NCCNC(=O)c1ccc(SCCC#CC(C3CCOCC3)N3CCC(NC(=O)COc4cccc5c4C(=O)N(C4CCC(=O)NC4=O)C5=O)CC3)cc1)c1nnc(C)n1-2 (stereo partly shown) [Compound 7a]	89.4 nM	reversed	300 to 1000 nM	6.64 min	209 µL/min/mg	low permeability and Low	0.007 ×10⁻⁶ cm/s	0.01 ×10⁻⁶ cm/s	1.4	Not-Substrate	low solubility	–	–	–
CC1=CC(C)=[N+]2C1=C(CCC(=O)N1CCN(C(C#CCCO)C3CCC(NC(=O)CCOCCOCCNC(=O)c4ccc5c(c4)C(=O)N(C4CCC(=O)NC4=O)C5=O)CC3)CC1)c1c(C)cc(C)n1[B-]2(F)F (stereo not shown) [Compound 4c]	–	–	–	–	–	–	–	–	–	–	–	166 ± 3.5 nM	–	–
Cc1sc2c(c1C)C(c1ccc(Cl)cc1)=N[C@@H](CC(=O)NCC#CC(C1CCN(C(=O)COc3cccc4c3C(=O)N(C3CCC(=O)NC3=O)C4=O)CC1)N1CCN(C(=O)COc3cccc4c3C(=O)N(C3CCC(=O)NC3=O)C4=O)CC1)c1nnc(C)n1-2 (stereo partly shown) [Compound 7c]	–	–	–	17.5 min	79.1 µL/min/mg	low permeability and Low	< 0.1 ×10⁻⁶ cm/s	< 0.1 ×10⁻⁶ cm/s	–	–	low solubility	–	> 1000 nM	poor solubility
Cc1ncsc1-c1ccc(CNC(=O)[C@@H]2C[C@@H](O)CN2C(=O)[C@@H](NC(=O)CCCCC(=O)NC2CCN(C(C#CCCSc3ccc(C(=O)NCCNC(=O)C[C@@H]4N=C(c5ccc(Cl)cc5)c5c(sc(C)c5C)-n5c(C)nnc54)cc3)C3CCOCC3)CC2)C(C)(C)C)cc1 (stereo partly shown) [Compound 7b]	–	–	–	–	–	–	–	–	–	–	–	–	> 1000 nM	poor solubility; also recorded: visibly poorly soluble
